Reference: US20230212316A1, “IgG EPITOPE PEPTIDES THAT BIND […] AND METHODS OF USE THEREOF” (priority 2021, published 2023)
Where no end group is shown, it is not given here. [ ]: non-standard residue; d: D form. Cit = NC(=O)NCCC[C@H](N)C(=O)O

What was measured:
[1] = system: serum IgG (rheumatoid factors); assay: Peptide ELISA: serum IgG binding to biotinylated IgG1-derived peptides; design: species or system human; settings: for Serum IgG binding to the peptide compared to controls: FIG. 3; for IgG binding to the peptide: Sjogren's disease subjects previously RF positive versus matched controls, FIG. 9B
[2] = system: serum IgM (rheumatoid factors); assay: Peptide ELISA: serum IgM binding to biotinylated IgG1-derived peptides; design: species or system human; settings: for IgM binding to the peptide: Sjogren's disease subjects previously RF positive versus matched controls, FIG. 9B; for IgM that binds to the peptide: COVID-19 convalescent subjects versus RA+, RA−, smokers and naïve controls, FIG. 8A
plasma IgG = settings: anti-CCP+ subjects who later develop RA compared to anti-CCP− subjects and CCP+ subjects who do not develop RA; FIG. 10B
Description: Human Subjects: Human subjects research was approved by the University of Wisconsin (UW) Institutional Review Board and complied with the Helsinki Declaration. Most sera were obtained from the UW Rheumatology Biorepository, which includes rheumatoid arthritis, systemic lupus erythematosus, Sjögren's disease (SjD), spondyloarthropathy, and controls (including current and never smokers) collected prior to 2019. Subjects were ≥18 years old. All subjects with rheumatic disease were confirmed to have that disease by a rheumatologist. […] Controls were matched by age and gender and carried none of the following diagnoses: RA, lupus, Sjögren's disease, scleroderma, psoriasis, psoriatic arthritis, ankylosing spondylitis, reactive arthritis, ulcerative colitis, Crohn's disease, multiple sclerosis, type I diabetes, hematologic malignancy, or past COVID-19.
Enzyme Linked Immunosorbent Assay (ELISA): For peptide ELISA, plates were coated with 5 μg/ml streptavidin (Thermo Fisher Scientific) for 1 hour at room temperature (RT) or overnight at 4 degrees Celsius, washed with PBS, then coated with 0.1-1.0 μM of peptide conjugated to biotin at the C terminus (Biomatik, Kitchener, Canada or Peptide2.0, Chantilly, Va., USA) for 1 hour at RT. For IgG Fc ELISA, plates were coated overnight at 4° C. with 10 μg/ml IgG Fc in PBS in 4 forms: treated with PADs in buffer, treated with 0.1M KOCN in dH2O, diluted in citrullination buffer, diluted in dH2O. After washing with PBS, plates were blocked for 1 hour to overnight at RT with 5% non-fat dried milk in 0.2% Tween 20 in PBS (serum ELISA block) or 1% BSA in PBS (mAMPA ELISA block without 0.1% Tween 20). Sera diluted 1:100, 1:200 or 1:2000 in serum ELISA block or 1 μg/m1mAMPAs in mAMPA ELISA block were applied to plates overnight at 4° C. […] After one hour at RT, plates were washed, developed with 3,3′,5,5′-tetramethylbenzidine (Thermo Fisher Scientific), then stopped with 0.18 M sulfuric acid. Plates were read on a FilterMAX F3 (Molecular Devices, San Jose, USA) at 450 and 562, with 562 values subtracted from 450 values for each sample. For each sample, absorbance values for uncoated wells were subtracted from peptide- or Fc-coated wells to exclude non-specific binding, and absorbance values for PAD-containing buffer were subtracted from wells coated with PAD-treated IgG Fc to exclude anti-PAD reactivity.

plasma IgM = assay: Pre-clinical RA peptide ELISA: plasma IgM binding to IgG1 peptides; design: species or system human; settings: CCP− controls and anti-CCP+ subjects who do not develop RA imminently compared to anti-CCP+ subjects who do develop RA imminently; FIG. 10A
Description: Subjects were ≥18 years old.

[3] = COVID-19 convalescent subjects, 5 weeks post-symptom resolution (n=121)
[4] = Control (non-smoking COVID-19 naïve controls without autoimmune disease, n=54)
[5] = RA+ (seropositive rheumatoid arthritis subjects, n=31)
[6] = RA− (seronegative rheumatoid arthritis subjects, n=26)

Sequence | Percent of subjects that would be considered seropositive for IgM antibodies against the peptide using a preliminary cutoff [2, 3] [%] | Percent of subjects that would be considered seropositive for IgM antibodies against the peptide using a preliminary cutoff [2, 4] [%] | Percent of subjects that would be considered seropositive for IgM antibodies against the peptide using a preliminary cutoff [2, 5] [%] | Percent of subjects that would be considered seropositive for IgM antibodies against the peptide using a preliminary cutoff [2, 6] [%] | IgM binding to the peptide [2] | Percent of subjects that would be considered seropositive for IgM antibodies against the peptide using a preliminary cutoff ([2]; Smoker (current smokers, n=10)) [%] | IgG binding to the peptide [1] | IgM that binds to the peptide [2] | Plasma IgG that binds to the peptide (plasma IgG) | further results
CPPCPAPELLGGPSV (IgG epitope) [Peptide P01857-109, native peptide from the hinge region of IgG1 starting at position 109] |  |  |  |  |  |  |  |  |  | Serum IgG binding to the peptide compared to controls ([1]; anti-CCP+RF+ RA): trend towards increased binding; Serum IgG binding to the peptide compared to controls ([1]; anti-CCP-RF− RA): no increased binding; Serum IgG binding to the peptide compared to controls ([1]; anti-SSA+ Sjögren's disease): significantly increased binding; Serum IgG binding to the peptide compared to controls ([1]; lupus): but not lupus or spondyloarthropathy serum IgG, had significantly increased binding; Serum IgG binding to the peptide compared to controls ([1]; spondyloarthropathy): but not lupus or spondyloarthropathy serum IgG, had significantly increased binding
DKTHTCPPCPAPELLG (IgG epitope) [Peptide P01857-104, native IgG1 hinge peptide, position 104] | 14 | 2 | 23 | 12 | bound | 20 | bound |  |  | 
KDTLMISRTPEVTCVV (IgG epitope) [Peptide P01857-131, native IgG1 peptide, position 131] | 45 | 2 | 0 | 0 | not bound | 0 | not bound | increased |  | 
LAPSSJSTSGGTAALGC [Peptide P01857-11J] |  |  |  |  |  |  |  |  | higher | 
LTVDKSRWQQGNVFSC (IgG epitope) [Peptide P01857-293, native IgG1 peptide, position 293] | 12 | 0 | 3 | 0 | not bound | 0 | not bound | increased |  | IgG that binds to the peptide ([1]; COVID-19 convalescent subjects versus RA+, RA−, smokers and naïve controls, FIG. 8B): increased
LYSJLTVDJSRWQQGNVFS [Peptide P01857-289J] |  |  |  |  |  |  |  |  | higher | 
LYSKLTVDKSBWQQGNVFS (LYSKLTVDKS[Cit]WQQGNVFS) [Peptide P01857-289B, citrulline (B)-containing IgG1 peptide, position 289] |  |  |  |  |  |  |  |  |  | Plasma IgM that binds to the peptide (plasma IgM): higher
RDELTKNQVSLTCLVK (IgG epitope) [Peptide P01857-238, native IgG1 peptide, position 238] | 44 | 0 | 6 | 4 | not bound | 0 | not bound | increased |  | 
TYICNVNHJPSNTJVDJJVEPJSC [Peptide P01857-80J] |  |  |  |  |  |  |  |  | higher | 
YJCJVSNJALPAP [Peptide P01857-202J] |  |  |  |  |  |  |  |  | higher | 
